# What was measured:
# Format in all cases: in vivo
# [1] = test system: ducksalad (Heteranthera limosa); assay: Test B flooded paddy test plant response
# In short: (§1)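 Step one: raise plants to 2 leaves. Step two: flood pots 3 cm over the soil and apply compound into the water, keeping this depth. Step three: after 13–15 greenhouse days, score visually versus controls, 0–100, where 100 means complete control.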
# rice (Oryza sativa) = assay: Test B flooded paddy test plant response
# In short: as §1
# [2] = test system: umbrella sedge (Cyperus difformis); assay: Test B flooded paddy test plant response
# In short: as §1
# [3] = test system: Italian ryegrass (Lolium multiflorum); assay: Test C pre-/postemergence plant response; details: Preemergence
# In short: (§2)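 Pre- and postemergence treatment, visual 0–100 rating vs controls at 15–25 days.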
# [4] = test system: annual bluegrass (Poa annua); assay: Test C pre-/postemergence plant response; details: Preemergence
# In short: as §2
# [5] = test system: blackgrass (Alopecurus myosuroides); assay: Test C pre-/postemergence plant response; details: Preemergence
# In short: as §2
# [6] = test system: canarygrass (Phalaris minor); assay: Test C pre-/postemergence plant response; details: Preemergence
# In short: as §2
# [7] = test system: downy bromegrass (Bromus tectorum); assay: Test C pre-/postemergence plant response; details: Preemergence
# In short: as §2
# [8] = test system: green foxtail (Setaria viridis); assay: Test C pre-/postemergence plant response; details: Preemergence
# In short: as §2
# [9] = test system: pigweed (Amaranthus retroflexus); assay: Test C pre-/postemergence plant response; details: Preemergence
# In short: as §2
# [10] = test system: spring barley (Hordeum vulgare); assay: Test C pre-/postemergence plant response; details: Preemergence
# In short: as §2
# [11] = test system: spring wheat (Triticum aestivum); assay: Test C pre-/postemergence plant response; details: Preemergence
# In short: as §2
# [12] = test system: wild mustard (Sinapis arvensis); assay: Test C pre-/postemergence plant response; details: Preemergence
# In short: as §2
# wild oat (Avena fatua) = assay: Test C pre-/postemergence plant response; details: Preemergence
# In short: as §2
# [13] = test system: windgrass (Apera spica-venti); assay: Test C pre-/postemergence plant response; details: Preemergence
# In short: as §2
# [14] = test system: winter barley (Hordeum vulgare); assay: Test C pre-/postemergence plant response; details: Preemergence
# In short: as §2
# [15] = test system: winter wheat (Triticum aestivum); assay: Test C pre-/postemergence plant response; details: Preemergence
# In short: as §2
# [16] = Flood (flooded paddy test), 62 g ai/ha, scale 0 to 100, 0 no effect, 100 complete control
# [17] = Flood (flooded paddy test), 125 g ai/ha, scale 0 to 100, 0 no effect, 100 complete control
# [18] = Flood (flooded paddy test), 250 g ai/ha, scale 0 to 100, 0 no effect, 100 complete control
# [19] = Flood, 31 g ai/ha, scale 0 to 100
# [20] = 8 g ai/ha, scale 0 to 100 (0 no effect, 100 complete control)
# [21] = 16 g ai/ha, scale 0 to 100 (0 no effect, 100 complete control)
# [22] = 31 g ai/ha, scale 0 to 100 (0 no effect, 100 complete control)
# [23] = 62 g ai/ha, scale 0 to 100, 0 no effect, 100 complete control
smiles,measurement,setting,value
Cc1cc(-c2ccc(Cl)cc2)nn1-c1c(OC(=O)C(C)C)cnn(C)c1=O [Compound 34],"Plant response rating, Ducksalad",[1]; [16],0
same,"Plant response rating, Ducksalad",[1]; [17],30
same,"Plant response rating, Ducksalad",[1]; [18],40
same,"Plant response rating, Ducksalad",[1]; [19],0
same,"Plant response rating, Rice",rice (Oryza sativa); [16],40
same,"Plant response rating, Rice",rice (Oryza sativa); [17],70
same,"Plant response rating, Rice",rice (Oryza sativa); [18],80
same,"Plant response rating, Rice",rice (Oryza sativa); [19],0
same,"Plant response rating, Sedge, Umbrella",[2]; [16],0
same,"Plant response rating, Sedge, Umbrella",[2]; [17],0
same,"Plant response rating, Sedge, Umbrella",[2]; [18],0
same,"Plant response rating, Sedge, Umbrella",[2]; [19],0
same,"Plant response rating, Ryegrass, Italian",[3]; [20],30
same,"Plant response rating, Ryegrass, Italian",[3]; [21],100
same,"Plant response rating, Ryegrass, Italian",[3]; [22],100
same,"Plant response rating, Ryegrass, Italian",[3]; [23],100
same,"Plant response rating, Bluegrass",[4]; [20],0
same,"Plant response rating, Bluegrass",[4]; [21],0
same,"Plant response rating, Bluegrass",[4]; [22],0
same,"Plant response rating, Bluegrass",[4]; [23],35
same,"Plant response rating, Blackgrass",[5]; [20],0
same,"Plant response rating, Blackgrass",[5]; [21],20
same,"Plant response rating, Blackgrass",[5]; [22],75
same,"Plant response rating, Blackgrass",[5]; [23],85
same,"Plant response rating, Canarygrass",[6]; [20],0
same,"Plant response rating, Canarygrass",[6]; [21],20
same,"Plant response rating, Canarygrass",[6]; [22],65
same,"Plant response rating, Canarygrass",[6]; [23],100
same,"Plant response rating, Bromegrass, Downy",[7]; [20],0
same,"Plant response rating, Bromegrass, Downy",[7]; [21],0
same,"Plant response rating, Bromegrass, Downy",[7]; [22],10
same,"Plant response rating, Bromegrass, Downy",[7]; [23],60
same,"Plant response rating, Foxtail, Green",[8]; [20],30
same,"Plant response rating, Foxtail, Green",[8]; [21],100
same,"Plant response rating, Foxtail, Green",[8]; [22],100
same,"Plant response rating, Foxtail, Green",[8]; [23],100
same,"Plant response rating, Pigweed",[9]; [20],0
same,"Plant response rating, Pigweed",[9]; [21],0
same,"Plant response rating, Pigweed",[9]; [22],0
same,"Plant response rating, Pigweed",[9]; [23],0
same,"Plant response rating, Barley, Spring",[10]; [20],0
same,"Plant response rating, Barley, Spring",[10]; [21],0
same,"Plant response rating, Barley, Spring",[10]; [22],0
same,"Plant response rating, Barley, Spring",[10]; [23],70
same,"Plant response rating, Wheat, Spring",[11]; [20],0
same,"Plant response rating, Wheat, Spring",[11]; [21],0
same,"Plant response rating, Wheat, Spring",[11]; [22],50
same,"Plant response rating, Wheat, Spring",[11]; [23],90
same,"Plant response rating, Mustard, Wild",[12]; [21],0
same,"Plant response rating, Mustard, Wild",[12]; [22],0
same,"Plant response rating, Mustard, Wild",[12]; [23],0
same,"Plant response rating, Oat, Wild",wild oat (Avena fatua); [20],0
same,"Plant response rating, Oat, Wild",wild oat (Avena fatua); [21],0
same,"Plant response rating, Oat, Wild",wild oat (Avena fatua); [22],70
same,"Plant response rating, Oat, Wild",wild oat (Avena fatua); [23],75
same,"Plant response rating, Windgrass",[13]; [20],0
same,"Plant response rating, Windgrass",[13]; [21],0
same,"Plant response rating, Windgrass",[13]; [22],20
same,"Plant response rating, Windgrass",[13]; [23],60
same,"Plant response rating, Barley, Winter",[14]; [20],0
same,"Plant response rating, Barley, Winter",[14]; [21],0
same,"Plant response rating, Barley, Winter",[14]; [22],10
same,"Plant response rating, Barley, Winter",[14]; [23],35
same,"Plant response rating, Wheat, Winter",[15]; [20],0
same,"Plant response rating, Wheat, Winter",[15]; [21],10
same,"Plant response rating, Wheat, Winter",[15]; [22],25
same,"Plant response rating, Wheat, Winter",[15]; [23],60
